# According to PMC10426190 (Breast Cancer Research : BCR, 2023):
# Tests used:
# [1] = system: GREB1, AGR3 transcription in T47D, EFM-19, HCC1500; test: ER pathway activity, RT-QPCR of GREB1 and AGR3; assay type: cell-based, human; conditions: 1 μM, 1 nM E2, 24 h
# Description: HCC1500, T47D, and EFM-19 were cultured in hormone deprivation media with 10% charcoal-stripped FBS for at least 3 days before assay. Trypsinized cells were seeded in a 12-well plate, stimulated with 1 nM E2, and treated with/without 1 μM compounds for 24 h. Total RNA was extracted using QIAGEN RNeasy Plus Mini Kit (Qiagen), according to the manufacturer’s protocol. The concentration of RNA samples was determined using NanoDrop 8000 (Thermo Scientific). SYBR Green expression assay (Qiagen#204154) was used to quantify GREB1 (Forward primer: […]; reverse primer: […]), AGR3 (Forward primer: […]; reverse primer: […]) and the house-keeping genes actin (OriGene#HP204660). The relative quantities were determined using ΔΔ threshold cycle (ΔΔCt), according to the manufacturer’s instructions (Applied Biosystems).
# MCF7 with hormone-deprived pre-treatment were administrated ER ligands or not present with 1 nM E2 stimulation for 24 h incubation in a 12-well plate. Total mRNA was isolated from treated cells and sequenced on an Illumina HiSeq X Ten platform. FPKM of each gene was calculated using Cufflinks and Differential expression genes analysis by using the DESeq (2012) R package. Four separate clusters were obtained. […] Endometrial height was assessed from the basement membrane to the luminal border (scale bar in green lines: 200 μm), Arrows indicate the uterine epithelium (e).
# [2] = system: ER + breast cancer cell lines; test: Proliferation assay across ER-positive cell panel; assay type: cell-based, human; conditions: 7 days
# Description: (§1) Trypsinized cells were dispensed into 384-well plates in culture media and after overnight incubation cells were treated with compounds for 7 days. Cell viability was assessed using CellTiter-Glo (Promega) according to the manufacturer’s protocol and relative luminescence units (RLU) were measured using an Envision Multilabel Reader (Perkin Elmer). […] IC50 and Imax were analyzed with IDBS XLfit.
# MCF7 cells were seeded in a 384-well plate and linear-dilution compounds were administrated in duplicate for each treatment. After incubation for 24 h, Cells in the assay pate were treated as described in methods. ERα levels were quantified by immunofluorescence assay. […] Data are given as mean ± SEM. b The maximal ERα degradation across an ER-positive cell panel was evaluated in an In-cell Western assay. Cells were dispended into 96-well plates and incubated for 24 h with compounds (100 nM) treatment. […] Cells were seeded in 384-well plates and treated with linear-dilution compounds for 7 days of incubation. Cell viability was assessed using CellTiter-Glo. Cell growth inhibition is presented as a percentage of CellTiterGlo activity relative to the vehicle control. […] WT (e) and ER. Y537S cells (f). […] Then cells in each well were collected and the targeting proteins in lysate supernatant were detected by WB
# [3] = target: T1, ERα Y537S mutant (Homo sapiens, UniProt P03372, Y537S); test: ERα degradation assay, In-Cell Western, MCF-7 Y537S; assay type: cell-based; conditions: 24 h
# T1 construct: MCF-7 wild type and Y537S mutant cells were seeded; host or cells: MCF7 expressing ER Y537S
# T1 sequence (P03372 1-595 Y537S): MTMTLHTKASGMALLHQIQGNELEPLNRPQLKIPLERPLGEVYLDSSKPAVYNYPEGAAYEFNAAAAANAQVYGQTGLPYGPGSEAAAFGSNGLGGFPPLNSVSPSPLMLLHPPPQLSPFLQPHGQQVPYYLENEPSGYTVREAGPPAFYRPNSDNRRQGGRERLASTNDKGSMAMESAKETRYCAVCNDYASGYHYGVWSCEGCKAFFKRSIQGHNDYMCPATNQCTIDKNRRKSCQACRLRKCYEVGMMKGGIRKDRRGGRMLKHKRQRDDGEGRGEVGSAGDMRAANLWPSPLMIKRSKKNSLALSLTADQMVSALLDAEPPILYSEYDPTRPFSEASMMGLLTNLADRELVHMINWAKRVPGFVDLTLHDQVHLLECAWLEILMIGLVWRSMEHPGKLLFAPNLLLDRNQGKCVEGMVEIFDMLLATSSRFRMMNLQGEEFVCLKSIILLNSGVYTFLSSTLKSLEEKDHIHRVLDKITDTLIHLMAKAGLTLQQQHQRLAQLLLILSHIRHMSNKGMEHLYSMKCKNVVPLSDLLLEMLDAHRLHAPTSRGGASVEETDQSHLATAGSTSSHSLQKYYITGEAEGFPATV
# Description: MCF-7 wild type and Y537S mutant cells were seeded at a density of 5000 cells per well into flat clear bottom tissue cultured-treated 384-well plates (Greiner) in culture media and after overnight incubation cells were treated with compounds for 24 h. Then plates were fixed with 4% formaldehyde, permeabilized with ice-cold methanol, and blocked with Odyssey Blocking Buffer (LI-COR). The fixed cells were incubated with rabbit anti- ERα antibody (CST#8644S) and mouse anti-GAPDH antibody (Abcam #ab8245), washed and stained with IRDye 800 Goat anti-Rabbit IgG (Licor#926-32211) and IRDye 680 Goat anti-Mouse IgG (Licor#926-68070). ERα levels were quantitated using Sapphire RGBNIR (Azure), the acumen eX3 imaging system. […] IC50 and Emax were analyzed with IDBS XLfit.
# [4] = system: MCF7 ESR1 D538G cells; test: Viability assay (CellTiter-Glo, 7 days), MCF7 D538G; assay type: cell-based, human; conditions: MCF-8 D538G
# Description: as §1
# (§2) Statistical and graphical presentations were performed using IDBS XLfit and GraphPad Prism 9. For cell proliferation assays, the IC50 was calculated by fitting a dose–response curve using a nonlinear regression model with a log(inhibitor) vs response curve fit. […] P-values < 0.05 were considered statistically significant.
# [5] = system: T47D subcutaneous tumors; test: T47D subcutaneous xenograft mouse model; assay type: in vivo; conditions: T47D sc, 250 mg/kg subcutaneous once a week
# Description: Female Balb/c nude mice were used for MCF-7 and T47D tumor subcutaneous xenograft studies. At least one day before tumor cell implantation, estrogen pellets (0.18 mg, 17β-Estradiol, 60-day release, Innovative Research of America, Sarasota, FL, USA) were implanted subcutaneously. Each mouse was subcutaneously injected with 1 × 10^7 MCF-7 (ECACC) or T47D cells in the right flank, and tumor growth was monitored. The long diameter (a) and the short diameter (b) of the tumor were measured using a caliper, and the tumor volume was calculated using the following formula: V = 0.5 × a × b^2. […] Tumor volumes were evaluated twice per week. Treatment tolerability was assessed by body weight measurements and frequent observation for clinical signs of treatment-related adverse effects.
# as §2
# [6] = system: advanced HR + /HER2- breast cancer; conditions: cited from earlier work
smiles,measurement,setting,value
CC/C(=C(\c1ccc(O)cc1)c1ccc(OCCN(C)C)cc1)c1ccccc1 [4-OH-tamoxifen],AGR3 transcription,[1]; EFM-19 and HCC1500,significant increase
same,anti-proliferation potency in ER + cell panel,[2],less potent than all tested SERDs
C[C@]12CC[C@@H]3c4ccc(O)cc4C[C@@H](CCCCCCCCC[S+]([O-])CCCC(F)(F)C(F)(F)F)[C@H]3[C@@H]1CC[C@@H]2O (some centres unmarked) [Fulvestrant],ERα degradation assay Dmax [% Ful.],[3],87.09 % Ful.
same,ERα degradation assay Dmax [% Veh.],[3],26.38 % Veh.
same,IC50,"[4]; Homo sapiens, MCF7, 168 h",11.1 nM
same,Viability assay Emax [% Ful.],[4],106.1 % Ful.
same,Viability assay Emax [% Veh.],[4],68.57 % Veh.
same,AGR3 and GREB1 transcription,"[1]; T47D, EFM-19, and HCC1500",significantly downregulated
same,TGI,[5],48.35%
same,median OS,[6],29.7 months
same,PFS,[6]; progressed on prior ET ref 45,4.6 months
